We go through two compounds from patent US20240316164A1, “ENHANCED EXPRESSION OF AN AROMATIC AMINO ACID DECARBOXYLASE (AADC) IN THE SUBSTANTIA NIGRA FOR THE TREATMENT OF PARKINSON'S DISEASE” (Northwestern University, priority 2021, published 2024).

“Also recorded” adds a separate entry of the source.

Assay [1] deals with cNdufs2−/− mice. The assay can be described thus: Y maze associative learning test. The class given is in vivo, mouse. Conditions: systemic levodopa 6 mg/kg, P30. The source says:
(§1) FIG. 4. cNdufs2^−/− mice manifest a progressive, levodopa-responsive Parkinsonism. a, Schematic diagram of the experimental protocol for Y maze test. […] Local electrical stimulation (350 μA, 2 ms) was used to evoke release. […] By P30, cNdufs2^−/− mice took longer (N=10-13 per group). e, Open-field traces in wildtype and cNdufs2^−/− mice at P30 and P100. f, Number of pauses during open field test in wildtype and cNdufs2^−/− mice. […] N=12-27per group. h-m, Gait analysis procedure and measurement schematics. h, Pictures of wildtype and cNdufs2^−/− mice footprints with representations of measurements of RF (Right Fore). RH (Right Hind). […] Box plots represent stride length in right hind paw at P100 (N=7 per group). m, Boxplots indicate swing duration in right hind paw. […] Kruskal-Wallis test: (b), (d), (f) and (g). ***P<0.001. 2-way ANOVA followed by Tukey's post hoc test (c). *P<0.05; **P<0.01; 1-way ANOVA followed by Tukey's post hoc test (i), (j), (l) and (m). Data are presented as box-and-whisker plots depicting median, quartiles, and range (b), (c), (i), (j), (l) and (m) or median and range (shaded area); (d), (f) and (g).
Unlike conventional PD models in which DA is depleted rapidly throughout the basal ganglia, the staging of pathology in cNdufs2^−/− mice allowed an assessment of how regional deficits in DA release are coupled to behavior. […]

The test system of assay [2] is cNdufs2−/− mice. The experiment in a line: Rearing test. The class given is in vivo, mouse. Conditions: levodopa 3 mg/kg, P20-P120. An excerpt: (§2) FIG. 21. Behavioral phenotypes in cNdufs2^−/− mice. (a) Rearing test performance. b. […] Number of rearings begin to be impaired at P40. […] At P60, cNdufs2^−/− mice show difficulty transitioning between rearing and landing, spending much more time ‘stuck’ in an elevated posture. […] P60 and P100. […] P60 and P100. […] P60 and P100. […] P60 and P100. […] 1. […] P60 and P100. […] P60 and P100. […] P60 and P100. […] Kruskal-Wallis test: (b), and (c). *P<0.05; **P<0.01; 1-way ANOVA followed by Tukey's post hoc test: (h-o). Data are presented as median and range (shaded area).
By P40, open-field, exploratory behavior of cNdufs2″ mice began to be interrupted by brief pauses, although the total distance traveled in the testing period was normal (FIGS. 4e-g). Later, open-field behavior of cNdufs2^−/− mice became progressively more impaired and total distance traveled began to fall (FIG. 4g). […] Another common exploratory behavior of mice involves rearing. When placed in a tall glass cylinder, mice rear, land and rear again in a different part of the cylinder; in a 3-minute period, mice typically rear and land 15-20 times. At P30, rearing behavior of cNdufs2^−/− mice was normal, but by P60 cNdufs2^−/− mice appeared to have difficulty transitioning between rearing and landing, spending much more time ‘stuck’ in an elevated posture. […]

In assay [3] the test system is cNdufs2−/− mice. The assay can be described thus: Adhesive removal test. The following applies: regardless of age. The class given is in vivo, mouse.
Text: as §1
By P40, open-field, exploratory behavior of cNdufs2″ mice began to be interrupted by brief pauses, although the total distance traveled in the testing period was normal (FIGS. 4e-g). […]

In assay [4] the test system is cNdufs2−/− mice. The assay can be described thus: Open field test. Type of assay: in vivo, mouse.
Assay [5] relates to cNdufs2−/− mice. The experiment in a line: Gait analysis on treadmill. The class given is in vivo, mouse.
Text: as §1, §2
However, by P100, cNdufs2^−/− mice had splayed hindlimbs, abnormal paw placement and alterations in stride when forced to ambulate on the treadmill (FIG. 4h-m, FIG. 21h-o). […] Because cNdufs2^−/− mice manifest a clear, levodopa-responsive Parkinsonism that is attributable to MCI dysfunction, they are referred to as MCI-Park mice.

The next assay concerns SN dopaminergic neurons. The assay can be described thus: Cytosolic ATP/ADP ratio with PercevalHR in ex vivo brain slice. The class given is cell-based, mouse. Conditions: wildtype dopaminergic neurons, inhibition of mitochondrial complex V. An excerpt:
FIG. 1. Loss of Ndufs2 function triggers mitochondrial and genomic adaptations in SN DA Neurons. a, Schematic of a coronal section of the midbrain highlighting the sampled region of SNc (orange). b, Meta-analysis of RNAseq data obtained by Cre-dependent RiboTag mRNA precipitation from P40 wildtype mice. […] Scale bar: 10 μm. e, Representative TMRM fluorescence time series after the application of carboxyatractyloside, the adenine nucleotide transporter inhibitor (iANT). f, Box plots of TMRM after blocking ANT with carboxyatractyloside and depolarizing mitochondria with FCCP (wildtype, P40 n=8 (1 per section), 6 mice; cNdufs2^−/−, P20 n=4 (1 per section), 3 mice; P40 n=5 (1 per section), 4 mice)). g, Cartoon representing the activity of the ETC and ANT following Ndufs2 deletion. h, Electron micrographs of SN DA neurons. The nucleus and the mitochondria are highlighted in green and red, respectively. […] The percentage of abnormal mitochondria was calculated as the ration between the area occupied by abnormal mitochondria over the total area occupied by mitochondria for each cell. […] Scale bar: 15 μm. p, Representative time-lapse measurements of Perceval-HR fluorescence ratio. […]

Setting [6] is: levodopa 6 mg/kg, P30, P60 and P100.

On to `N[C@@H](Cc1ccc(O)c(O)c1)C(=O)O` [levodopa], for which the “associative learning (memory) task, percentage of correct choices” value in the assay on cNdufs2−/− mice [1] is “restored”. In the assay with cNdufs2−/− mice [2], the “number of rearings in a 3-minute period” value was “did not rescue this deficit” and the rearing time entry is listed as “did not lessen this deficit; also recorded: did not rescue this deficit”. Besides, in the assay with cNdufs2−/− mice [3], the adhesive removal speed entry is listed as “improved adhesive removal speed regardless of age”. For the same compound, the “number of pauses during open field test” value with cNdufs2−/− mice [4] (cNdufs2−/− mice, levodopa 3 mg/kg) is reported as “rescued this deficit”. The “open-field performance (pauses, total distance traveled)” value in the assay on cNdufs2−/− mice [4] (cNdufs2−/− mice, levodopa treatment) is “improved performance in this task”. For the same compound, in the assay on cNdufs2−/− mice [4] (control MCI-Park mice without AADC, low systemic levodopa dose 1.5 mg/kg, ~P100, 1.5 mg/kg), the open-field ambulation entry is given as “had no discernible effect”. The “gait deficits (splayed hindlimbs, abnormal paw placement, alterations in stride)” value in the assay with cNdufs2−/− mice [5] (P100) is “ameliorated some, but not all of these deficits”. Besides, in the assay on cNdufs2−/− mice [5] (levodopa 6 mg/kg), the “swing duration in right hind paw” value is “not rescued”. In the assay with cNdufs2−/− mice [5] (setting [6]), the “brake duration in right hind paw” value is “did not rescue this phenotype”, the “propulsion time in right hind paw” value is recorded as “did not rescue this phenotype”, the “step sequence in right hind paw” value is given as “did not rescue this phenotype” and the “stride frequency in right hind paw” value is “did not rescue this phenotype”. In the assay with cNdufs2−/− mice [5] (levodopa 6 mg/kg, P100), the “hind limb stance width” value is “rescued this phenotype”, the “paw area in right hind paw” value is given as “rescued this phenotype at P100” and the “stance duration in right hind paw” value is recorded as “rescued this phenotype at P100”.
As to `CC[C@H]1/C=C/C=C/C[C@@H](C)[C@H](O)[C@@](C)(O)C(=O)[C@@H](C)[C@H](O)[C@@H](C)C(=O)[C@@H](C)[C@H](O)[C@@H](C)/C=C/C(=O)O[C@@H]2[C@H](C)[C@H](CC1)O[C@]1(CC[C@H](C)[C@H](C[C@@H](C)O)O1)[C@H]2C` [oligomycin], in the assay with SN dopaminergic neurons, the “cytosolic ATP/ADP ratio (ATP levels)” value is listed as “caused a precipitous drop in ATP levels”.
